Values after ≈ are worked out from the molar mass of the structure shown. Like-named read-outs stand apart in the source and are kept apart here.
Key:
[1] = DPPH free radical scavenging assay; assay type: biochemical; conditions: concentration of 20µg/l, mean ± SD of three experiments
Experimental: Antioxidant activity of the newly synthesized 13a–i, 14a–i, 11a–c and 12a–c were assessed in terms of hydrogen-donating or radical-scavenging ability via the stable free radical 1,1-diphenyl-2-picrylhydrazyl (DPPH) using ascorbic acid as a reference at a concentration of […].
The free radical scavenging activity (RSA) was assessed spectrophotometically at 517 nm via decoloration of the solution of the DPPH (1,1-diphenyl-2-picrylhydrazyl) radical according to Brand-Williams et al. 1995 [32]. DPPH solution was prepared by dissolving of 20 mg of DPPH in one liter of dimethylsulphoxide (DMSO). A freshly prepared DPPH solution was used for the assay. Each of the tested compounds 11a–c, 12a–c, 13a–i, 14a–i and 15a,b were dissolved in DMSO (1mg/mL). A volume of […] of a DMSO stock solution of the test compounds was added to 2 mL of freshly prepared DPPH in DMSO solution. The mixtures were shaken in a vortex (2500 rpm) for 1 min and then left to stand for 15, 30, 45 and 60 min in the dark room. The absorbance was measured at 517 nm against blank using UV visible spectrophotometer 2401 PC (Shimadzu, Kyoto, Japan). Lower absorbance of the reaction mixture indicated higher free radical scavenging activity was analyzed from the graph plots of the inhibition percentage against the compound concentration. The experiment was carried out in triplicate and averaged. The scavenging activity was calculated according to the following formula:Scavenging ability (%) = (A517 of control - A517of sample / A 517 of control) ×100(1)

[2] = system: HCT-116 (human colon cancer); experiment: MTT cytotoxicity assay, HCT-116; assay type: cell-based; conditions: Homo sapiens; for inhibition at 100 µg/mL: HCT-116, 100 µg/ml, 48 h, read-out: Growth Inhibition (%) HCT-116; for IC50: HCT-116, 48 h, 48 h post-treatment
[3] = system: MCF-7 (human breast cancer); experiment: MTT cytotoxicity assay, MCF-7; assay type: cell-based; conditions: for inhibition at 100 µg/mL: MCF7, 100 µg/ml, 48 h, read-out: Growth Inhibition (%) MCF-7; for IC50: MCF7, 48 h post-treatment
[4] = system: normal skin fibroblast cells (BJ-1); experiment: MTT cytotoxicity assay, normal skin fibroblast BJ-1; assay type: cell-based; conditions: Homo sapiens, 48 h, read-out: Growth Inhibition (%) BJ-1
[5] = system: HepG-2 (human liver cancer); experiment: MTT cytotoxicity assay, HepG-2; assay type: cell-based; conditions: for inhibition at 100 µg/mL: HepG2, 100 µg/ml, 48 h, read-out: Growth Inhibition (%) HepG-2; for IC50: HepG2, 48 h post-treatment
Experimental: MCF-7 (human breast cancer), HCT-116 (human colon cancer) and HepG2 (human liver cancer) cell lines were obtained from Karolinska Institute, Stockholm, Sweden. All cells were maintained in RPMI 1640 medium. The media were supplemented with 10% heat-inactivated fetal bovine serum plus 1% antibiotic-antimycoticmixture (10,000 U/mL of potassium penicillin, 10,000 μg/mL of streptomycin sulfate, 25 μg/mL of amphotericin B and 1% of L glutamine (Biowest, USA)). BJ-1 of a human skin fibroblast derived from normal foreskin was obtained from ATCC® CRL-2522™ as a frozen ampoule with about 1 × 10^6 cells per 1 ml volume. BJ-1 was maintained in MEM with 2 mM of L-glutamine and Earle’s salts medium.
Cell viability was studied using the MTT 3-(4,5-dimethylthiazol-2-yl)-2,5-diphenyl-tetrazolium bromide (Bio Basic Canada Inc. Toronto, Canada) assay [33]. The steps were executed in a sterile laminar air flow cabinet biosafety class II level (Baker, SG403INT; Sanford, ME, USA). All incubations were carried out at 37 °C in a 5% CO2 incubator under a humidified atmosphere of 95% (Sheldon, TC2323; Cornelius, OR, USA). Cells were seeded into 96-well microtiter plastic plates at a concentration of (10^4 cells/well) and allowed to adhere for 24 h. The medium was aspirated and then added to the cells with the test compounds 11a–c, 12a–c, 13a–i, 14a–i and 15a,b at a single dose of 100 μg/mL in DMSO. After incubation of the medium for 48 h, 40 μL of MTT salt (2.5 μg/mL) was added to each well and then incubated for an additional 4 h. To stop the reaction and dissolve any formed formazan crystals, 200 μL of 10% sodium dodecyl sulfate (SDS) were added to each well and incubated overnight at 37 °C. The amount of formazan product was measured at 595 nm with a reference wavelength of 690 nm as a background using a microplate reader (Bio-Rad Laboratories, model 3350, California, USA). For the untreated cells (negative control), the medium was added instead of the tested compounds. […] Dimethylsulfoxide (DMSO) was the vehicle used for dissolution of the testing compound, and its final concentration on the cells was less than 0.2%. At the same dilution, the solvent concentration was the same for all drugs and between the control and drug treatments.

[6] = system: C. albicans (ATCC 10231); experiment: Disk diffusion antimicrobial test, C. albicans; assay type: cell-based, Candida albicans; conditions: Candida albicans, ATCC10231, disk diffusion; yeast; 20 mg per disc (title), concentration 20 µg (footnote)
Experimental: (§1) The newly synthesized compounds were chosen to be evaluated in vitro towards a variety of pathogenic microorganisms; Gram-positive bacteria: S. aureus (ATCC 6538) and B. subtilis (ATCC 6633); Gram-negative bacteria: P. areuginosa (ATCC 27853) and E. coli (DSMZ 1058); yeast: C. albicans (ATCC 10231) and S. cerevisiae (ATCC 9080) and fungi: A. niger (NRRL A-326) using the disk diffusion method at a single dose of 20 µl. The results are shown in Table 1 as the growth inhibition zone (mm).
(§2) The antimicrobial activity of target compounds were evaluated to be in vitro against a variety of pathogenic microorganisms, namely Staphylococcus aureus (ATCC 6538), Bacillus subtilis (ATCC 6633) (Gram-positive bacteria), Pseudomonas areuginosa (ATCC 27853), Escherichia coli (DSMZ 1058) (Gram-negative bacteria), Candida albicans (ATCC 10231), Saccharomyces cerevisiae (ATCC 9080) (Yeast) and Aspergillus niger (NRRL A-326) (Fungi) using the disk diffusion method at a single dose of 20 µg. The microorganisms were served and obtained from the Microbial Biotechnology Department, National Research Center, Giza, Egypt. Amphotericin, amoxicillin and ciprofloxacin were used as reference drugs (Oxoid™ Disks). The tested compounds 11a–c, 12a–c, 13a–i, 14a–i and 15a,b were dissolved in dimethylsulphoxide (DMSO) at a concentration of 1 mg/mL. Aliquots of 20 μl were soaked on filter paper discs (6 mm) and dried at room temperature under sterilized conditions. The paper discs were placed on inoculated agar plats and then incubated for 24 h at 37 °C for bacterial strains and after 48–72 h incubation at 30 °C for fungi. Both bacterial and yeast strains were grown on nutrient agar medium (g/l): beef extract, 3; peptone, 10 and agar, 20 at pH of 7.2. The fungal strain was grown on Czapek-Dox medium (g/l): sucrose, 30; NaNO3, 3; MgSO4.7H2O, 0.5l; KCl, 0.5; FeSO4, 0.01; K2HPO4, 1 and agar, 20 at pH of 6.0.

[7] = system: S. cerevisiae (ATCC 9080); experiment: Disk diffusion antimicrobial test, S. cerevisiae; assay type: cell-based; conditions: Saccharomyces cerevisiae, ATCC9080, yeast, 20 mg per disc (title), concentration 20 µg (footnote)
Experimental: as §1, §2

[8] = 15 min, read-out: Scavenging Activity (%) on DPPH radicals at 15 min
[9] = 30 min, read-out: Scavenging Activity (%) on DPPH radicals at 30 min
[10] = 45 min, read-out: Scavenging Activity (%) on DPPH radicals at 45 min
[11] = 60 min, read-out: Scavenging Activity (%) on DPPH radicals at 60 min

Q: For `CCn1cc(C2=NN(c3ccccc3)C3(C2)C(=O)Nc2ccccc23)c2ccccc21` (stereo not shown) [Compound 14b, 5’-(N-Ethyl-1H-indol-3-yl)-2’-phenyl-2’,4’-dihydrospiro(indoline-3,3’-pyrazol)-2-one], which inhibition [1, 8] is on record?
A: Its inhibition is 42.4 ± 1.45%.

Q: What about the inhibition [1, 9] of the same compound?
A: Its inhibition is 58.1 ± 1.28%.

Q: And the inhibition [1, 10]?
A: The inhibition was 60.3 ± 1.66%.

Q: And the inhibition [1, 11]?
A: The inhibition was 66 ± 1.64%.

Q: What about the inhibition at 100 µg/mL [2] of the same compound?
A: Its inhibition at 100 µg/mL is 84.6%.

Q: And the IC50 [2]?
A: The IC50 was 40.1 µg/mL (≈ 98.6 µM).

Q: What about the inhibition at 100 µg/mL [3] of the same compound?
A: Its inhibition at 100 µg/mL is 80.3%.

Q: What about the IC50 [3] of the same compound?
A: Its IC50 is 36.3 µg/mL (≈ 89.3 µM).

Q: What about the inhibition at 100 µg/mL [4] of the same compound?
A: Its inhibition at 100 µg/mL is 8.1%.

Q: What about the melting point of the same compound?
A: Its melting point is 108 to 110 °C.

Q: What does the source list for `O=C(c1ccc(Cl)cc1)n1cc(C2=NNC3(C2)C(=O)Nc2ccccc23)c2ccccc21` (stereo not shown) [Compound 13f, 5’-(N-(4-Chloro-benzoyl)-1H-indol-3-yl)-2’,4’-dihydrospiro(indoline-3,3’-pyrazol)-2-one]?
A: inhibition [1, 8]: 17.9 ± 1.62%; inhibition [1, 9]: 28.3 ± 1.61%; inhibition [1, 10]: 34.3 ± 1.27%; inhibition [1, 11]: 40.7 ± 1.54%; inhibition at 100 µg/mL [2]: 86.5%; IC50 [2]: 28.4 µg/mL (≈ 64.4 µM); inhibition at 100 µg/mL [5]: 72.8%; IC50 [5]: 83.6 µg/mL (≈ 190 µM); inhibition at 100 µg/mL [3]: 79.7%; IC50 [3]: 32.1 µg/mL (≈ 72.8 µM); inhibition at 100 µg/mL [4]: 16.4%; melting point: 202 to 204 °C

Q: For `O=C1Nc2ccccc2C12CC(c1c[nH]c3ccccc13)=NN2` (stereo not shown) [Compound 13a, 5’-(1H-Indol-3-yl)-2’,4’-dihydrospiro(indoline-3,3’-pyrazol)-2-one], which zone of inhibition at 20 µg/disc [6] is on record?
A: Its zone of inhibition at 20 µg/disc is 18 mm.

Q: What about the zone of inhibition at 20 µg/disc [7] of the same compound?
A: Its zone of inhibition at 20 µg/disc is 20 mm.

Q: And the inhibition [1, 8]?
A: The inhibition was 41.1 ± 1.25%.

Q: What about the inhibition [1, 9] of the same compound?
A: The inhibition was 45.8 ± 1.36%.

Q: What about the inhibition [1, 10] of the same compound?
A: The inhibition was 56.5 ± 1.99%.

Q: And the inhibition [1, 11]?
A: Its inhibition is 64.1 ± 2.01%.

Q: What about the inhibition at 100 µg/mL [2] of the same compound?
A: The inhibition at 100 µg/mL was 96.9%.

Q: And the IC50 [2]?
A: Its IC50 is 31.3 µg/mL (≈ 104 µM).

Q: What about the inhibition at 100 µg/mL [5] of the same compound?
A: The inhibition at 100 µg/mL was 89.3%.

Q: What about the IC50 [5] of the same compound?
A: The IC50 was 60.6 µg/mL (≈ 200 µM).

Q: And the inhibition at 100 µg/mL [3]?
A: The inhibition at 100 µg/mL was 96.4%.

Q: What about the IC50 [3] of the same compound?
A: The IC50 was 32.4 µg/mL (≈ 107 µM).

Q: And the inhibition at 100 µg/mL [4]?
A: Its inhibition at 100 µg/mL is 11.6%.

Q: And the melting point?
A: The melting point was 318 to 320 °C.

Q: For `O=C(c1ccccc1)n1cc(C2=NNC3(C2)C(=O)Nc2ccccc23)c2ccccc21` (stereo not shown) [Compound 13d, 5’-(N-Benzoyl-1H-indol-3-yl)-2’,4’-dihydrospiro(indoline-3,3’-pyrazol)-2-one], which inhibition [1, 8] is on record?
A: The inhibition was 19.3 ± 1.24%.

Q: And the inhibition [1, 9]?
A: Its inhibition is 31.3 ± 1.81%.

Q: And the inhibition [1, 10]?
A: The inhibition was 25.9 ± 1.24%.

Q: What about the inhibition [1, 11] of the same compound?
A: The inhibition was 39.7 ± 1.99%.

Q: What about the inhibition at 100 µg/mL [2] of the same compound?
A: Its inhibition at 100 µg/mL is 94.6%.

Q: And the IC50 [2]?
A: The IC50 was 26.9 µg/mL (≈ 66.2 µM).

Q: What about the inhibition at 100 µg/mL [5] of the same compound?
A: Its inhibition at 100 µg/mL is 82.7%.

Q: What about the IC50 [5] of the same compound?
A: The IC50 was 60.9 µg/mL (≈ 150 µM).

Q: What about the inhibition at 100 µg/mL [3] of the same compound?
A: Its inhibition at 100 µg/mL is 96.4%.

Q: What about the IC50 [3] of the same compound?
A: The IC50 was 25.4 µg/mL (≈ 62.5 µM).

Q: And the inhibition at 100 µg/mL [4]?
A: Its inhibition at 100 µg/mL is 7%.

Q: What about the melting point of the same compound?
A: The melting point was 307 to 309 °C.

Q: With `O=C1Nc2ccccc2C12CC(c1cn(Cc3ccccc3)c3ccccc13)=NN2c1ccccc1` (stereo not shown) [Compound 14c, 5’-(N-Benzyl-1H-indol-3-yl)-2’-phenyl-2’,4’-dihydrospiro(indoline-3,3’-pyrazol)-2-one] as the compound, how does the inhibition [1, 8] read?
A: The inhibition was 14.8 ± 1.36%.

Q: What about the inhibition [1, 9] of the same compound?
A: The inhibition was 22.6 ± 1.79%.

Q: And the inhibition [1, 10]?
A: Its inhibition is 26.3 ± 1.23%.

Q: What about the inhibition [1, 11] of the same compound?
A: Its inhibition is 39.5 ± 1.61%.

Q: What about the inhibition at 100 µg/mL [2] of the same compound?
A: Its inhibition at 100 µg/mL is 91.8%.

Q: What about the IC50 [2] of the same compound?
A: Its IC50 is 40.5 µg/mL (≈ 86.4 µM).

Q: And the inhibition at 100 µg/mL [3]?
A: Its inhibition at 100 µg/mL is 92.3%.

Q: And the IC50 [3]?
A: The IC50 was 32.5 µg/mL (≈ 69.4 µM).

Q: What about the inhibition at 100 µg/mL [4] of the same compound?
A: Its inhibition at 100 µg/mL is 13.6%.

Q: And the melting point?
A: Its melting point is 96 to 98 °C.

Q: Which inhibition [1, 8] does the source give for `O=C1Nc2ccccc2C12CC(c1cn(S(=O)(=O)c3ccc(Br)cc3)c3ccccc13)=NN2` (stereo not shown) [Compound 13g, 5’-(N-(4-Bromo-benzenesulfonyl)-1H-indol-3-yl)-2’,4’-dihydrospiro(indoline-3,3’-pyrazol)-2-one] here?
A: Its inhibition is 25.9 ± 1.85%.

Q: What about the inhibition [1, 9] of the same compound?
A: The inhibition was 44 ± 1.46%.

Q: What about the inhibition [1, 10] of the same compound?
A: The inhibition was 49.2 ± 1.77%.

Q: What about the inhibition [1, 11] of the same compound?
A: The inhibition was 53.7 ± 1.81%.

Q: What about the inhibition at 100 µg/mL [2] of the same compound?
A: Its inhibition at 100 µg/mL is 92.4%.

Q: And the IC50 [2]?
A: Its IC50 is 35.3 µg/mL (≈ 67.7 µM).

Q: And the inhibition at 100 µg/mL [5]?
A: Its inhibition at 100 µg/mL is 81.9%.

Q: And the IC50 [5]?
A: The IC50 was 72.2 µg/mL (≈ 138 µM).

Q: And the inhibition at 100 µg/mL [3]?
A: The inhibition at 100 µg/mL was 91.6%.

Q: And the IC50 [3]?
A: The IC50 was 43 µg/mL (≈ 82.5 µM).

Q: And the inhibition at 100 µg/mL [4]?
A: Its inhibition at 100 µg/mL is 13%.

Q: And the melting point?
A: The melting point was 190 to 192 °C.
